Test results reported in US20040121316A1 (priority 2002, published 2004).
Read-outs that look alike come from different tables or passages of the source.

Assays:
WT HIV-1 [1] = test: microbe, parasite or virus in culture; type: cell-based; details: Human immunodeficiency virus 1, MT4, read-out: Cell-based assay (MT-4) EC50/nM WT
HIV-1 protease 84V90M = target: T1, HIV-1 protease 84V90M (Human immunodeficiency virus type 1 group M subtype B, UniProt P04585, I572V/L578M); test: Enzymatic assay, IC50 against 84V90M mutant protease; type: biochemical
T1 construct: synthetic hexapeptide substrate cleavage by HIV-1 protease

[2] = test system: recombinant HIV-1 10I 84V 71V 73S 90M; test: microbe, parasite or virus in culture; type: cell-based; details: Human immunodeficiency virus 1, MT4, read-out: Cell-based assay (MT-4) EC50/nM 84V 90M
[3] = test system: wild-type HIV-1 strain IIIB; test: microbe, parasite or virus in culture; type: cell-based; details: Human immunodeficiency virus 1, IIIB
in vitro = details: human
[4] = test system: recombinant HIV-1 strains with resistance mutations in the protease gene; test: Cross-Resistance Profile Assay, whole panel; type: cell-based; details: {}
in vivo = details: beagle, dog, po
HIV-1 84V90M = test: microbe, parasite or virus in culture; type: cell-based; details: MT-4, 84V90M, read-out: Cell-based assay (MT-4) EC50/nM 84V90M
WT HIV-1 [5] = test: microbe, parasite or virus in culture; type: cell-based
HIV-1 30N82I88D = test: microbe, parasite or virus in culture; type: cell-based; details: MT-4, 30N82I88D, read-out: Cell-based assay (MT-4) EC50/nM 30N82I88D
HIV-1 48V54V82A = test: microbe, parasite or virus in culture; type: cell-based; details: MT-4, 48V54V82A, read-out: Cell-based assay (MT-4) EC50/nM 48V54V82A
84V90M HIV protease = 84V90M HIV protease (Human immunodeficiency virus type 1 group M subtype B, UniProt P04585, I572V/L578M); test: biochemical; set-up: species or system HIV-1
[6] = target: T2, recombinant HIV-1 protease (Human immunodeficiency virus type 1 group M subtype B, UniProt P04585); test: biochemical
T2 construct: Enzyme: recombinant HIV-1 protease expressed in E.Coli; purchased Bachem California, Inc. H-9040; host or cells: E. coli

HIV-1 46I50V = test: microbe, parasite or virus in culture; type: cell-based; details: MT-4, 46I50V, read-out: Cell-based assay (MT-4) EC50/nM 46I50V
WT HIV protease = target: T3, WT HIV protease (Human immunodeficiency virus type 1 group M subtype B, UniProt P04585); test: biochemical; set-up: species or system HIV-1
T3 construct: synthetic hexapeptide substrate cleavage by HIV-1 protease

mutant HIV-1 I84V/L90M = test: Resistance Evaluation, I84V/L90M fold change; type: cell-based; details: EC50 of mutant I84V/L90M relative to wild type; class symbols
[7] = MT2, 120 h, read-out: Anti-HIV-1 Cell Culture Activity EC50
[8] = read-out: Cell-based assay (MT-4) EC50/nM WT
[9] = Enzymatic assay, 84V90M, read-out: 84V90M IC50/nM
[10] = Human immunodeficiency virus 1, read-out: Cell-based assay (MT-4) EC50/nM WT

## O=C1N(Cc2ccccc2)C(Cc2ccccc2)C(O)C(O)C(Cc2ccc(OCP(=O)(O)O)cc2)N1Cc1ccccc1 (stereo not shown)
WT HIV-1 [1]
  EC50: > 6000 nM
HIV-1 protease 84V90M
  IC50: 210 nM
[2]
  EC50: > 6000 nM

## CC(C)CN(C[C@@H](O)[C@H](Cc1ccccc1)NC(=O)O[C@H]1CCOC1)S(=O)(=O)c1ccc(N)cc1 [Amprenavir, reference compound]
[3]
  EC50: < 50 nM
[3]; [7]
  EC50: 16 ± 2.2 nM
In vitro
  CC50: > 50000 nM
[4]
  Total No. of Resistant Viruses: 4
In vivo
  AUC: 102 µM·h
  half-life: 1.7 h

## Nc1n[nH]c2ccc(CN3C(=O)N(CCCCO)C(Cc4ccccc4)C(O)C(O)C3Cc3ccccc3)cc12 (stereo not shown) [CH2OH]
HIV-1 84V90M
  EC50: 1110 nM
WT HIV-1 [5]; [8]
  EC50: 253 nM
HIV-1 30N82I88D
  EC50: 486 nM
HIV-1 48V54V82A
  EC50: 413 nM
84V90M HIV protease; [9]
  IC50: 31 nM
[6]; read-out: Ki
  Ki: 0.017 nM
HIV-1 46I50V
  EC50: 524 nM
WT HIV protease; read-out: WT IC50/nM
  IC50: 2.8 nM

## COc1ccc(S(=O)(=O)N(CC(C)C)C[C@@H](O)[C@H](Cc2ccccc2)NC(=O)O[C@H]2CO[C@H]3OCC[C@H]32)cc1 [Example 94-003, reference compound]
[3]
  EC50: < 50 nM
[3]; [7]
  EC50: 1.4 ± 0.3 nM
In vitro
  CC50: 5000 to 50000 nM
[4]
  Total No. of Resistant Viruses: 3

## Cc1c(O)cccc1C(=O)N[C@@H](CSc1ccccc1)[C@H](O)CN1C[C@H]2CCCC[C@H]2C[C@H]1C(=O)NC(C)(C)C [Nelfinavir]
[3]
  EC50: < 50 nM
Quiescent PBMC
  distribution between cytosol and membrane fractions: present only in the membrane fractions
[4]
  Total No. of Resistant Viruses: 9
In vivo
  AUC: 33 µM·h
  half-life: 3 h

## CCOC(=O)C(C)NP(=O)(COc1ccc(CC(NC(=O)OC2COC3OCCC23)C(O)CN(CC(C)C)S(=O)(=O)c2ccc(OC)cc2)cc1)NC(C)C(=O)OCC (stereo not shown) [drawing 612 R1=Ala-Et R2=Ala-Et]
[3]
  EC50: 50 to 500 nM
In vitro
  CC50: > 50000 nM
Mutant HIV-1 I84V/L90M
  I84V/L90M fold change: − (≦3)

## Nc1n[nH]c2ccc(CN3C(=O)N(Cc4cccc(OCP(=O)(O)O)c4)C(Cc4ccccc4)C(O)C(O)C3Cc3ccccc3)cc12 (stereo not shown) [m-OCH2PO3H2]
WT HIV-1 [5]; [10]
  EC50: > 12000 nM
84V90M HIV protease
  IC50: 33 nM
[6]; Ki (nM)
  Ki: 0.254 nM
WT HIV protease
  IC50: 8.3 nM

## Nc1n[nH]c2ccc(CN3C(=O)N(Cc4cccc(OCP(=O)(O)Oc5ccccc5)c4)C(Cc4ccccc4)C(O)C(O)C3Cc3ccccc3)cc12 (stereo not shown) [m-OCH2PO3HPh]
HIV-1 84V90M; Human immunodeficiency virus 1
  EC50: > 6000 nM
WT HIV-1 [5]; [10]
  EC50: 1740 nM
84V90M HIV protease
  IC50: 65 nM
[6]; Ki (nM), Enzymatic assay
  Ki: 0.644 nM
WT HIV protease
  IC50: 17 nM

## Nc1n[nH]c2ccc(CN3C(=O)N(Cc4cccc(OCP(=O)(Oc5ccccc5)Oc5ccccc5)c4)C(Cc4ccccc4)C(O)C(O)C3Cc3ccccc3)cc12 (stereo not shown) [m-OCH2PO3Ph2]
HIV-1 84V90M; Human immunodeficiency virus 1
  EC50: > 6000 nM
WT HIV-1 [5]; [10]
  EC50: 1350 nM
HIV-1 30N82I88D; Human immunodeficiency virus 1
  EC50: 1540 nM
HIV-1 48V54V82A; Human immunodeficiency virus 1
  EC50: 2180 nM
84V90M HIV protease
  IC50: 42 nM
[6]; Ki (nM), Enzymatic assay
  Ki: 0.543 nM
HIV-1 46I50V; Human immunodeficiency virus 1
  EC50: 3380 nM
WT HIV protease
  IC50: 10 nM

## CCCCOC(=O)C(C)NP(=O)(COc1cccc(CN2C(=O)N(Cc3ccc4[nH]nc(N)c4c3)C(Cc3ccccc3)C(O)C(O)C2Cc2ccccc2)c1)NC(C)C(=O)OCCCC (stereo not shown) [m-bis-Ala-Bu]
HIV-1 84V90M
  EC50: > 6000 nM
WT HIV-1 [5]; [8]
  EC50: 1080 nM
HIV-1 30N82I88D
  EC50: 2360 nM
HIV-1 48V54V82A
  EC50: 1850 nM
84V90M HIV protease; [9]
  IC50: 103 nM
[6]; read-out: Ki
  Ki: 1.28 nM
HIV-1 46I50V
  EC50: 1540 nM
WT HIV protease; read-out: WT IC50/nM
  IC50: 18 nM

## CCOC(=O)C(C)NP(=O)(COc1cccc(CN2C(=O)N(Cc3ccc4[nH]nc(N)c4c3)C(Cc3ccccc3)C(O)C(O)C2Cc2ccccc2)c1)NC(C)C(=O)OCC (stereo not shown) [m-bis-Ala-Et]
HIV-1 84V90M
  EC50: > 6000 nM
WT HIV-1 [5]; [8]
  EC50: 5620 nM
HIV-1 30N82I88D
  EC50: 1850 nM
84V90M HIV protease; [9]
  IC50: 202 nM
[6]; read-out: Ki
  Ki: 1.99 nM
WT HIV protease; read-out: WT IC50/nM
  IC50: 31 nM

## Nc1n[nH]c2ccc(CN3C(=O)N(Cc4ccc(OCP(=O)(O)O)cc4)C(Cc4ccccc4)C(O)C(O)C3Cc3ccccc3)cc12 (stereo not shown) [p-OCH2PO3H2]
WT HIV-1 [5]; [10]
  EC50: > 12000 nM
84V90M HIV protease
  IC50: 1660 nM
[6]; Ki (nM)
  Ki: > 5 nM
WT HIV protease
  IC50: 551 nM
